Results: patent US4470926A, “Medicaments containing thymosin alpha 1 fragments and having an immunostimulant action, and fragments of thymosin alpha 1” (priority 1980, dated 1984)
Where two headings read alike, the source gives them in different places. Residues, ends and D or L forms follow the SMILES beside them. No end group written: not given here.

Assays:
[1] = system: human peripheral lymphocytes; format: cell-based; details: for stimulation (+) / inhibition (-) (%) of the mixed lymphocyte culture: 1 μg fragment per ml; for (%) Stimulation of allogenic mixed culture: 1 microgram thymosin α1 per ml
Description: The test in mixed lymphocyte cultures is based on the fact that T-cells are made to proliferate by stimulation with allogenic antigens. For the performance of the test, the lymphocytes of donor A ("responder") are incubated with those of donor B ("stimulator") for 4 to 5 days. Then ^3 H-thymidin is added and the rate of proliferation is measured on the basis of the increasing radioactivity of the cell culture due to the installation of the radioactive material. Since both populations A and B might be made to proliferate, resulting in an unclear effect, population B is blocked with mitomycin C in all metabolical activities. This test is routinely used before organ transplants to determine the immunological compatibility of donor and receiver tissues.

[2] = system: human peripheral lymphocytes; format: cell-based; details: for Optimum concentr.: concentration of optimum E-rosette stimulation after α-amanitin block; for Relative number of the E-rosettes (%): after inhibition with α-amanitin
Description: The immunological test methods used were the E-rosette test according to Wara, Ammann et al. (N.Y. Acad. Sci. 249 (1975) 308 and N. Engl. J. Med. 292 (1975) 70) and the method of mixed lymphocyte culture, both methods involving additional inhibition of cellular RNS polymerase by alpha-amanitin. The E-rosette test is based on the fact that the percentage of E-rosette forming cells in peripheral human blood is a measure of the content of fully mature T-cells, which form with sheep's red blood cells characteristic aggregates which can be counted under the microscope.
For the performance of the E-rosette test, peripheral human lymphocytes are isolated by a gradient centrifugation. Their RNS polymerase is blocked by alpha-amanitin. […] This value is taken as 100% in a relative numerical scale, and after the alpha-amanitin blockage it is taken to be 0%; see Table XII.

[3] = cell pair AB, culture blocked with 1 μg α-amanitin per ml
[4] = cell pair AB, not blocked with amanitin, culture without addition = 0%
[5] = cell pair BA, culture blocked with 1 μg α-amanitin per ml
[6] = cell pair CD, not blocked with amanitin, culture without addition = 0%
[7] = cell pair DC, not blocked with amanitin, culture without addition = 0%
[8] = after α-amanitin block (=0%), normal level without any addition = 100%, at optimum concentration
[9] = cell pair CD, culture blocked with 1 μg α-amanitin per ml
[10] = cell pair DC, culture blocked with 1 μg α-amanitin per ml
[11] = cell pair BA, not blocked with amanitin, culture without addition = 0%

## C[C@H](NC(=O)[C@@H](N)CCC(=O)O)C(=O)N[C@@H](CCC(=O)O)C(=O)N[C@@H](CC(N)=O)C(=O)O [V] (H-EAEN-OH)
[1]
  action in the mixed lymphocyte culture (in words): very considerable stimulation of T-cell proliferation
[1]; [3]
  stimulation (+) / inhibition (-) (%) of the mixed lymphocyte culture: -47%
[1]; [4]
  stimulation (+) / inhibition (-) (%) of the mixed lymphocyte culture: +223%
[1]; [5]
  stimulation (+) / inhibition (-) (%) of the mixed lymphocyte culture: -94%
[1]; [6]
  stimulation (+) / inhibition (-) (%) of the mixed lymphocyte culture: +45%
[1]; [7]
  stimulation (+) / inhibition (-) (%) of the mixed lymphocyte culture: +37%
[2]
  activity in the E-rosette test (in words): activity in the E-rosette test only at a relatively high dosage
  Optimum concentr.: 113 µM
[2]; [8]
  E-rosette number (%): 42%

## TKDLKEKKEVVEEAEN [VII]
[2]
  E-rosette number (%): 41%
  activity in the E-rosette test (in words): more strongly stimulated
  Optimum concentr.: 6 µM

## KEVVEEAEN [VI]
[1]; [3]
  stimulation (+) / inhibition (-) (%) of the mixed lymphocyte culture: +279%
[1]; [4]
  stimulation (+) / inhibition (-) (%) of the mixed lymphocyte culture: +153%
[1]; [5]
  stimulation (+) / inhibition (-) (%) of the mixed lymphocyte culture: -96%
[1]; [9]
  stimulation (+) / inhibition (-) (%) of the mixed lymphocyte culture: +83%
[1]; [6]
  stimulation (+) / inhibition (-) (%) of the mixed lymphocyte culture: +57%
[1]; [10]
  stimulation (+) / inhibition (-) (%) of the mixed lymphocyte culture: +160%
[2]; [8]
  E-rosette number (%): 16%
[2]
  Optimum concentr.: 10 µM

## KEVVE [IV]
[1]
  action in the mixed lymphocyte culture (in words): very considerable stimulation of T-cell proliferation
[1]; [3]
  stimulation (+) / inhibition (-) (%) of the mixed lymphocyte culture: -87%
[1]; [4]
  stimulation (+) / inhibition (-) (%) of the mixed lymphocyte culture: -53%
[1]; [5]
  stimulation (+) / inhibition (-) (%) of the mixed lymphocyte culture: -97%
[1]; [9]
  stimulation (+) / inhibition (-) (%) of the mixed lymphocyte culture: +35%
[1]; [6]
  stimulation (+) / inhibition (-) (%) of the mixed lymphocyte culture: +37%
[1]; [10]
  stimulation (+) / inhibition (-) (%) of the mixed lymphocyte culture: +100%
[1]; [7]
  stimulation (+) / inhibition (-) (%) of the mixed lymphocyte culture: +2%
[2]
  activity in the E-rosette test (in words): activity in the E-rosette test only at a relatively high dosage
  Optimum concentr.: 83 µM
[2]; [8]
  E-rosette number (%): 45%

## KDAAVD [Ia]
[1]
  action in the mixed lymphocyte culture (in words): surprisingly pronounced inhibiting action
[1]; [3]
  stimulation (+) / inhibition (-) (%) of the mixed lymphocyte culture: -10%
[1]; [4]
  stimulation (+) / inhibition (-) (%) of the mixed lymphocyte culture: -8%
[1]; [11]
  stimulation (+) / inhibition (-) (%) of the mixed lymphocyte culture: -15%
[1]; [9]
  stimulation (+) / inhibition (-) (%) of the mixed lymphocyte culture: -53%
[1]; [6]
  stimulation (+) / inhibition (-) (%) of the mixed lymphocyte culture: -73%
[1]; [10]
  stimulation (+) / inhibition (-) (%) of the mixed lymphocyte culture: -7%
[1]; [7]
  stimulation (+) / inhibition (-) (%) of the mixed lymphocyte culture: -31%
[2]
  activity in the E-rosette test (in words): especially active
  Optimum concentr.: 16 µM
[2]; [8]
  E-rosette number (%): 93%

## Synthetic thymosin α1: parent substance, totally synthetic thymosin α1, 28 amino acids, analytically pure (SDAAVDTSSEITTKDLKEKKEVVEEAEN; ends and bridges not checked; UniProt P06454 2-29, looked up) [reference compound]
[1]; cell pair AB, (a) culture not inhibited, without addition = 0%
  (%) Stimulation of allogenic mixed culture: +20%
[1]; cell pair AB, (b) culture inhibited with 1 microgram amanitin per ml
  (%) Stimulation of allogenic mixed culture: +86%
[1]; cell pair AD, (a) culture not inhibited
  (%) Stimulation of allogenic mixed culture: +4%
[1]; cell pair AD, (b) culture inhibited with 1 microgram amanitin per ml
  (%) Stimulation of allogenic mixed culture: +37%
[1]; cell pair BA, (a) culture not inhibited
  (%) Stimulation of allogenic mixed culture: +27%
[1]; cell pair BA, (b) culture inhibited with 1 microgram amanitin per ml
  (%) Stimulation of allogenic mixed culture: +47%
[1]; cell pair BD, (a) culture not inhibited
  (%) Stimulation of allogenic mixed culture: +45%
[1]; cell pair BD, (b) culture inhibited with 1 microgram amanitin per ml
  (%) Stimulation of allogenic mixed culture: +51%
[1]; cell pair DA, (a) culture not inhibited
  (%) Stimulation of allogenic mixed culture: +44%
[1]; cell pair DB, (a) culture not inhibited
  (%) Stimulation of allogenic mixed culture: +27%
[1]; cell pair DB, (b) culture inhibited with 1 microgram amanitin per ml
  (%) Stimulation of allogenic mixed culture: +1550%
[2]; 0.25 μg per culture
  Relative number of the E-rosettes (%): 39%
[2]; 0.50 μg per culture
  Relative number of the E-rosettes (%): 100%
[2]; 1.00 μg per culture
  Relative number of the E-rosettes (%): 64%
[2]; 2.50 μg per culture
  Relative number of the E-rosettes (%): 57%
[2]; 5.00 μg per culture
  Relative number of the E-rosettes (%): 33%
[2]; [8]
  E-rosette number (%): 100%
[2]
  Optimum concentr.: 1.6 µM

## TSSEIT [II]
[1]; [3]
  stimulation (+) / inhibition (-) (%) of the mixed lymphocyte culture: -11%
[1]; [5]
  stimulation (+) / inhibition (-) (%) of the mixed lymphocyte culture: -80%
[1]; [11]
  stimulation (+) / inhibition (-) (%) of the mixed lymphocyte culture: -18%
[1]; [9]
  stimulation (+) / inhibition (-) (%) of the mixed lymphocyte culture: -98%
[1]; [6]
  stimulation (+) / inhibition (-) (%) of the mixed lymphocyte culture: -53%
[1]; [10]
  stimulation (+) / inhibition (-) (%) of the mixed lymphocyte culture: +20%
[1]; [7]
  stimulation (+) / inhibition (-) (%) of the mixed lymphocyte culture: +30%
[2]; [8]
  E-rosette number (%): 29%
[2]
  Optimum concentr.: 80 µM

## Ac-SDAAVDTSSEIT [IX]
[1]
  action in the mixed lymphocyte culture (in words): surprisingly pronounced inhibiting action
[1]; [3]
  stimulation (+) / inhibition (-) (%) of the mixed lymphocyte culture: -30%
[1]; [4]
  stimulation (+) / inhibition (-) (%) of the mixed lymphocyte culture: -74%
[1]; [5]
  stimulation (+) / inhibition (-) (%) of the mixed lymphocyte culture: -78%
[1]; [9]
  stimulation (+) / inhibition (-) (%) of the mixed lymphocyte culture: +63%
[1]; [6]
  stimulation (+) / inhibition (-) (%) of the mixed lymphocyte culture: -63%
[1]; [10]
  stimulation (+) / inhibition (-) (%) of the mixed lymphocyte culture: +60%
[1]; [7]
  stimulation (+) / inhibition (-) (%) of the mixed lymphocyte culture: -77%
[2]
  activity in the E-rosette test (in words): more strongly stimulated
  Optimum concentr.: 4 µM
[2]; [8]
  E-rosette number (%): 40%
